Assays:
[1] = biological target: T1, human GRIN1 (variant NR1-3) and GRIN2D expressed in HEK293 cells (Homo sapiens, UniProt O15399); experiment: GluN2D PAM CIQ fluorescence assay (Fluo-8 calcium, FDSS 6000); assay type: cell-based; conditions: relative to CIQ (100 uM) = 100%, read-out: NR2D Percent CIQ Avg Max Measured Effect
T1 construct: GenScript (GRIN2D synthesis) SC115601; host or cells: HEK293
Description: GluN2D PAM CIO Flourescence AssayHEK293 cells were transfected to express human GRIN1 (variant NR1-3, Origene, SKU #: SC115601, Rockville, Md.) and GRIN2D (NCBI locus NM_000836, sequence optimized and synthesized by GenScript) and grown as an adherent monolayer at 37° C., 5% CO2 in DMEM/Ham's F12+10% FBS (Hyclone SH3007.03T in the presence of 2.5 mM ARL-15896 (AdooQ Bioscience, Irvine Calif.). To prepare the cells for an experiment, they were rinsed with Dulbecco's PBS (Ca^2+ and Mg^2+ free) and detached from the flask with TrypLE™ Express (Life Technologies, Carlsbad, Calif.) using the manufacturer's recommended methods. Cells collected from the flask were washed twice in Ca^2+/Mg^2+-free Hanks Balanced Salt Solution+20 mM HEPES (HBSS), and counted and assessed for viability with trypan blue. Washed cells were then dye-loaded by resuspending in Fluo-8/AM calcium sensitive dye plus Component B (AAT Bioquest, Sunnyvale, Calif.) diluted in HBSS. To allow cells to take up fluo-8 dye, they were incubated in the dark for 15 min at 37° C., followed by 30 min at 22-25° C. After dye-loading, cells were washed and resuspended in HBSS and plated in 384-well plates (Falcon 353962; Corning, Big Flats, N.Y.) at 20,000-30,000 cells/well in a final volume of 25 μl/well. The cell plates were centrifuged at 200×g, for 2 minutes at 21° C., to create a monolayer of cells at the bottom of the wells.
To initiate an assay, 10 μl of test compound or buffer was added to each well of the cell plate and pre-incubated for 10 minutes in the dark. After 10 minutes, the cell plate was placed in a FDSS 6000 plate reader (Hamamatsu Photonics, Middlesex, N.J.); baseline fluorescence readings were collected for 20 seconds. Next, 25 μl of agonist solution (3 μM glutamate, 3 μM glycine, and 1 mM Ca^2+ in HBSS) was added and the change in fluorescence was recorded for 3 minutes.
Results were calculated by comparing the effects of test compounds to that of the literature standard GluN2C/D PAM CIQ (100 uM). The increase in fluorescence in the presence of CIQ minus the increase induced by glutamate+glycine alone was set to 100%. Responses induced by compounds that were larger than gain the presence of the standard concentration of CIQ were greater than 100% and lesser responses were less than 100%.

[2] = biological target: T2, human GRIN1 (transcript variant NR1-3) and GRIN2D expressed in Xenopus oocytes (Homo sapiens, UniProt O15399); experiment: NR2D oocyte potentiation assay (two-electrode voltage clamp); assay type: cell-based; conditions: 10 uM test compound; glutamate and glycine 10 μM each; holding potential −40 mV
T2 construct: GenScript (GRIN2D synthesis) SC115601; host or cells: Xenopus oocytes injected with cRNA (1 GluN1 : 2 GluN2)
Outline: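 Xenopus oocytes were defolliculated with collagenase, then injected with 50 nL of cRNA encoding human GluN1 (NR1-3 variant) and GluN2D mixed 1:2 and kept 72 h at 16° C. Two-electrode voltage clamp at −40 mV recorded currents; after 10 μM glutamate plus 10 μM glycine reached plateau, test compound was added until a new plateau formed.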

T1 sequence (O15399 28-1336, other chains not shown): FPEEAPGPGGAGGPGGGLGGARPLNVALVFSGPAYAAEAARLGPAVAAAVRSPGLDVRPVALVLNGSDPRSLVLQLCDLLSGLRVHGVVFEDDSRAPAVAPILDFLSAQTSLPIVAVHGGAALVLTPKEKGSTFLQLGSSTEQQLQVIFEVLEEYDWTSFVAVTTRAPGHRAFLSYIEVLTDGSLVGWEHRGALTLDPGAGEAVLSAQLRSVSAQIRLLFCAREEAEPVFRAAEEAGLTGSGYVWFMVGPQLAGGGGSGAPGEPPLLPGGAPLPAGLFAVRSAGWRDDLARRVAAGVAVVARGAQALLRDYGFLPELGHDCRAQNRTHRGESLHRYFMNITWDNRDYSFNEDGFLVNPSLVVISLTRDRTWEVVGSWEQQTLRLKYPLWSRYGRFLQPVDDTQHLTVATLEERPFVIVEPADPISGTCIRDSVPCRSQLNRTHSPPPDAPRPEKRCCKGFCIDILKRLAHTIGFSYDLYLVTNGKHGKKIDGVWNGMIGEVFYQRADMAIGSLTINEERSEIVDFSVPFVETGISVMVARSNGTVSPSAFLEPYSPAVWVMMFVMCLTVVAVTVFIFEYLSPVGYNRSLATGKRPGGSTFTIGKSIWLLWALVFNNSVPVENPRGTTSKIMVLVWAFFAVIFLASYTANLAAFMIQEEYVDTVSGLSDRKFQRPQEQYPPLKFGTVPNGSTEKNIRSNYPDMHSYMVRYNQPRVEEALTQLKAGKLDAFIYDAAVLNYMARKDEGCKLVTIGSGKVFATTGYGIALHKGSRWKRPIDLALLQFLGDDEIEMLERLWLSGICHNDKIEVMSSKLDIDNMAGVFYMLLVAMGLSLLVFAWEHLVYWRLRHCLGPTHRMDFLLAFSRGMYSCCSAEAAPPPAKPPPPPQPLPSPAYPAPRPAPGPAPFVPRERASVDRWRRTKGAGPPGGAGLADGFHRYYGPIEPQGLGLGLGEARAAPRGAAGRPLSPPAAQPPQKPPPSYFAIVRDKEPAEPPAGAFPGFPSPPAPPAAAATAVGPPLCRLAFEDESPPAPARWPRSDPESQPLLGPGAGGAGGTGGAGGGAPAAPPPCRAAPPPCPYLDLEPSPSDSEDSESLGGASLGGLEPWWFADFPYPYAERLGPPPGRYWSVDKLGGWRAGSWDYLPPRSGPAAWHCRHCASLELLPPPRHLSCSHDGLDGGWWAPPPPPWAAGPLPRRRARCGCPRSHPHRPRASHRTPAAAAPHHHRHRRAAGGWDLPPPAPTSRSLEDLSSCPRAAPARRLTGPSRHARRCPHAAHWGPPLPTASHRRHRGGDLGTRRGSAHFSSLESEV
T2 sequence (O15399 28-1336, other chains not shown): as above

SMILES | Emax [1] | activation at 10 µM [2] | NR2D Oocyte % Potentiation @ 10 uM [2]
CC(C)(C)c1ccc(-c2nc3n(c(=O)c2C#N)CC2(COC2)CS3)cc1 [Example 204, 8′-(4-tert-butylphenyl)-6′-oxo-4′,6′-dihydro-2′H-spiro[oxetane-3,3′-pyrimido[2,1-b][1,3]thiazine]-7′-carbonitrile] | 10 to 50% | 10 to 100% | 
CC(C)(C)c1ccc(-c2nc3n(c(=O)c2C#N)CCS3)cc1 [Example 205, 7-(4-tert-butylphenyl)-5-oxo-2H,3H,5H-[1,3]thiazolo[3,2-a]pyrimidine-6-carbonitrile] | 100 to 200% | 100 to 500% | 

More lines, now with the values ahead:

Emax [1] | activation at 10 µM [2] | NR2D Oocyte % Potentiation @ 10 uM [2] | SMILES
50 to 100% | 10 to 100% |  | CC(C)c1ccc(-c2nc3n(c(=O)c2C#N)CCS3)cc1 [Example 206, 5-oxo-7-[4-(propan-2-yl)phenyl]-2H,3H,5H-[1,3]thiazolo[3,2-a]pyrimidine-6-carbonitrile]
50 to 100% |  | Inhibitor | COc1ccc(-c2nc3n(c(=O)c2C#N)CCS3)c(OC)c1 [Example 208, 7-(2,4-dimethoxyphenyl)-5-oxo-2H,3H,5H-[1,3]thiazolo[3,2-a]pyrimidine-6-carbonitrile]
10 to 50% |  | Inhibitor | N#Cc1c(-c2ccc(Cl)cc2)nc2n(c1=O)CCS2 [Example 209, 7-(4-chlorophenyl)-5-oxo-2H,3H,5H-[1,3]thiazolo[3,2-a]pyrimidine-6-carbonitrile]

From patent publication US11807650B2, “NMDA receptor modulators and uses thereof” (Novartis AG, priority 2016, dated 2023)
